{"source": "patent US12077503B2", "about": "“Substituted cyclic amides and their use as herbicides” (FMC CORPORATION, priority 2015, dated 2024)", "type_in_all_cases": "in vivo", "key": {"[1]": {"tested_on": "Kochia (Kochia scoparia)", "experiment": "Test A preemergence", "conditions": "Bassia scoparia, pre-emergence, 240 h, preemergence, 0 to 100 scale where 0 is no effect and 100 is complete control, read-out: Kochia plant response rating", "outline": "(§1)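 Preemergence soil spray on seeded pots or post-emergence spray on 1–2 leaf plants, in loam–sand blend. Greenhouse ~10 d. Visual rating 0–100 against untreated plants.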"}, "[2]": {"tested_on": "barnyardgrass (Echinochloa crus-galli)", "experiment": "Test A preemergence", "conditions": "Echinochloa crus-galli, pre-emergence, 240 h, preemergence, 0 to 100 scale where 0 is no effect and 100 is complete control, read-out: Barnyardgrass plant response rating", "outline": "as §1"}, "[3]": {"tested_on": "giant foxtail (Setaria faberii)", "experiment": "Test A preemergence", "conditions": "Setaria faberi, pre-emergence, 240 h, preemergence, 0 to 100 scale where 0 is no effect and 100 is complete control, read-out: Foxtail, Giant plant response rating", "outline": "as §1"}, "[4]": {"tested_on": "pigweed (Amaranthus retroflexus)", "experiment": "Test A preemergence", "conditions": "Amaranthus retroflexus, pre-emergence, 240 h, preemergence, 0 to 100 scale where 0 is no effect and 100 is complete control, read-out: Pigweed plant response rating"}, "[5]": {"tested_on": "ragweed (common ragweed, Ambrosia elatior)", "experiment": "Test A preemergence", "conditions": "Ambrosia artemisiifolia, pre-emergence, 240 h, preemergence, 0 to 100 scale where 0 is no effect and 100 is complete control, read-out: Ragweed plant response rating", "outline": "as §1"}, "[6]": {"tested_on": "ryegrass, Italian (Italian ryegrass, Lolium multiflorum)", "experiment": "Test A preemergence", "conditions": "Lolium multiflorum, pre-emergence, 240 h, preemergence, 0 to 100 scale where 0 is no effect and 100 is complete control, read-out: Ryegrass, Italian plant response rating", "outline": "as §1"}, "[7]": {"tested_on": "Galium (catchweed bedstraw, Galium aparine)", "experiment": "Test A postemergence", "conditions": "Galium, post-emergence, 240 h, postemergence", "outline": "as §1"}, "[8]": {"tested_on": "Kochia (Kochia scoparia)", "experiment": "Test A postemergence", "conditions": "Bassia scoparia, post-emergence, 240 h, postemergence", "outline": "as §1"}, "[9]": {"tested_on": "barnyardgrass (Echinochloa crus-galli)", "experiment": "Test A postemergence", "conditions": "Echinochloa crus-galli, post-emergence, 240 h, postemergence", "outline": "as §1"}, "[10]": {"tested_on": "corn (Zea mays)", "experiment": "Test A postemergence", "conditions": "Zea mays, post-emergence, 240 h, postemergence", "outline": "as §1"}, "[11]": {"tested_on": "giant foxtail (Setaria faberii)", "experiment": "Test A postemergence", "conditions": "Setaria faberi, post-emergence, 240 h, postemergence", "outline": "as §1"}, "[12]": {"tested_on": "pigweed (Amaranthus retroflexus)", "experiment": "Test A postemergence", "conditions": "Amaranthus retroflexus, post-emergence, 240 h, postemergence", "outline": "as §1"}, "[13]": {"tested_on": "ragweed (common ragweed, Ambrosia elatior)", "experiment": "Test A postemergence", "conditions": "Ambrosia artemisiifolia, post-emergence, 240 h, postemergence", "outline": "as §1"}, "[14]": {"tested_on": "ryegrass, Italian (Italian ryegrass, Lolium multiflorum)", "experiment": "Test A postemergence", "conditions": "Lolium multiflorum, post-emergence, 240 h, postemergence", "outline": "as §1"}, "[15]": {"tested_on": "wheat (Triticum aestivum)", "experiment": "Test A postemergence", "conditions": "Triticum aestivum, post-emergence, 240 h, postemergence", "outline": "as §1"}, "[16]": {"conditions": "125 g ai/ha, visual injury rating, approximately 10 d"}}}
{"compound": "CN1C[C@H](c2ccc(C#N)cc2)[C@@H](C(=O)Nc2ccccc2F)C1=O", "note": "[Compound 1207]", "values": [{"measurement": "pest or weed control at 125 g/ha", "setting": "[1]; [16]", "value": 30, "unit": "%"}, {"measurement": "pest or weed control at 500 g/ha", "setting": "[1]; 500 g ai/ha", "value": 90, "unit": "%"}, {"measurement": "pest or weed control at 125 g/ha", "setting": "[2]; [16]", "value": 60, "unit": "%"}, {"measurement": "pest or weed control at 500 g/ha", "setting": "[2]; 500 g ai/ha", "value": 100, "unit": "%"}, {"measurement": "pest or weed control at 125 g/ha", "setting": "[3]; [16]", "value": 80, "unit": "%"}, {"measurement": "pest or weed control at 500 g/ha", "setting": "[3]; 500 g ai/ha", "value": 100, "unit": "%"}, {"measurement": "pest or weed control at 125 g/ha", "setting": "[4]; [16]", "value": 0, "unit": "%"}, {"measurement": "pest or weed control at 500 g/ha", "setting": "[4]; 500 g ai/ha", "value": 60, "unit": "%"}, {"measurement": "pest or weed control at 125 g/ha", "setting": "[5]; [16]", "value": 30, "unit": "%"}, {"measurement": "pest or weed control at 500 g/ha", "setting": "[5]; 500 g ai/ha", "value": 90, "unit": "%"}, {"measurement": "pest or weed control at 125 g/ha", "setting": "[6]; [16]", "value": 0, "unit": "%"}, {"measurement": "pest or weed control at 500 g/ha", "setting": "[6]; 500 g ai/ha", "value": 20, "unit": "%"}, {"measurement": "pest or weed control at 125 g/ha", "setting": "[7]; 125 g ai/ha, visual injury vs untreated controls after approx. 10 d, 0 = no effect, 100 = complete control, read-out: Galium plant response rating (0 to 100 scale)", "value": 20, "unit": "%"}, {"measurement": "pest or weed control at 500 g/ha", "setting": "[7]; 500 g ai/ha, 0 to 100 scale, 0 is no effect, 100 is complete control, read-out: Galium plant response rating", "value": 40, "unit": "%"}, {"measurement": "pest or weed control at 125 g/ha", "setting": "[8]; 125 g ai/ha, visual injury vs untreated controls after approx. 10 d, 0 = no effect, 100 = complete control, read-out: Kochia plant response rating (0 to 100 scale)", "value": 20, "unit": "%"}, {"measurement": "pest or weed control at 500 g/ha", "setting": "[8]; 500 g ai/ha, 0 to 100 scale, 0 is no effect, 100 is complete control, read-out: Kochia plant response rating", "value": 60, "unit": "%"}, {"measurement": "pest or weed control at 125 g/ha", "setting": "[9]; 125 g ai/ha, visual injury vs untreated controls after approx. 10 d, 0 = no effect, 100 = complete control, read-out: Barnyardgrass plant response rating (0 to 100 scale)", "value": 70, "unit": "%"}, {"measurement": "pest or weed control at 500 g/ha", "setting": "[9]; 500 g ai/ha, 0 to 100 scale, 0 is no effect, 100 is complete control, read-out: Barnyardgrass plant response rating", "value": 100, "unit": "%"}, {"measurement": "plant injury at 125 g/ha", "setting": "[10]; 125 g ai/ha, visual injury vs untreated controls after approx. 10 d, 0 = no effect, 100 = complete control, read-out: Corn plant response rating (0 to 100 scale)", "value": 0, "unit": "%"}, {"measurement": "plant injury at 500 g/ha", "setting": "[10]; 500 g ai/ha, 0 to 100 scale, 0 is no effect, 100 is complete control, read-out: Corn plant response rating", "value": 0, "unit": "%"}, {"measurement": "pest or weed control at 125 g/ha", "setting": "[11]; 125 g ai/ha, visual injury vs untreated controls after approx. 10 d, 0 = no effect, 100 = complete control, read-out: Foxtail, Giant plant response rating (0 to 100 scale)", "value": 50, "unit": "%"}, {"measurement": "pest or weed control at 500 g/ha", "setting": "[11]; 500 g ai/ha, 0 to 100 scale, 0 is no effect, 100 is complete control, read-out: Foxtail, Giant plant response rating", "value": 90, "unit": "%"}, {"measurement": "pest or weed control at 125 g/ha", "setting": "[12]; 125 g ai/ha, visual injury vs untreated controls after approx. 10 d, 0 = no effect, 100 = complete control, read-out: Pigweed plant response rating (0 to 100 scale)", "value": 0, "unit": "%"}, {"measurement": "pest or weed control at 500 g/ha", "setting": "[12]; 500 g ai/ha, 0 to 100 scale, 0 is no effect, 100 is complete control, read-out: Pigweed plant response rating", "value": 20, "unit": "%"}, {"measurement": "pest or weed control at 125 g/ha", "setting": "[13]; 125 g ai/ha, visual injury vs untreated controls after approx. 10 d, 0 = no effect, 100 = complete control, read-out: Ragweed plant response rating (0 to 100 scale)", "value": 0, "unit": "%"}, {"measurement": "pest or weed control at 500 g/ha", "setting": "[13]; 500 g ai/ha, 0 to 100 scale, 0 is no effect, 100 is complete control, read-out: Ragweed plant response rating", "value": 30, "unit": "%"}, {"measurement": "pest or weed control at 125 g/ha", "setting": "[14]; 125 g ai/ha, visual injury vs untreated controls after approx. 10 d, 0 = no effect, 100 = complete control, read-out: Ryegrass, Italian plant response rating (0 to 100 scale)", "value": 0, "unit": "%"}, {"measurement": "pest or weed control at 500 g/ha", "setting": "[14]; 500 g ai/ha, 0 to 100 scale, 0 is no effect, 100 is complete control, read-out: Ryegrass, Italian plant response rating", "value": 0, "unit": "%"}, {"measurement": "plant injury at 125 g/ha", "setting": "[15]; 125 g ai/ha, visual injury vs untreated controls after approx. 10 d, 0 = no effect, 100 = complete control, read-out: Wheat plant response rating (0 to 100 scale)", "value": 0, "unit": "%"}, {"measurement": "plant injury at 500 g/ha", "setting": "[15]; 500 g ai/ha, 0 to 100 scale, 0 is no effect, 100 is complete control, read-out: Wheat plant response rating", "value": 0, "unit": "%"}]}
